Data published in publication PMC7226045, “Ensartinib (X-396) Effectively Modulates Pharmacokinetic Resistance Mediated by ABCB1 and ABCG2 Drug Efflux Transporters and CYP3A4 Biotransformation Enzyme” (Cancers, 2020).
pIC50: −log10 of the molar value.

How the values were obtained:
HL60-ABCC1 cells = experiment: XTT proliferation assay, HL60-ABCC1; format: cell-based; details: Homo sapiens, 48 h, read-out: IC50, sensitivity to ensartinib
Description: The MTT method is not readily adapted for use with suspension cell cultures, therefore the XTT assay was used to assess the proliferation of HL60 cells. Briefly, HL60-par, HL60-ABCB1, HL60-ABCG2, and HL60-ABCC1 cells were seeded at 2 × 10^4 cells/well in 96-well culture plates. Immediately after seeding, dilutions of the tested drugs or drug combinations were added to the cells. The plates were then incubated under standard conditions (37 °C, 5% CO2) for 48 h, after which XTT solution in PBS (1 mg/mL) and phenazine methosulfate (7.50 µg/mL) were added to the cells and the plates were incubated for another 5 h. Finally, the cells’ absorbance was measured at 450 nm using a microplate reader (Infinite M200, Tecan, Salzburg, Austria). This method was used to assess the effect of ABC transporters on sensitivity to ensartinib and in drug combination assays.

CYP1A2 = molecular target: T1, CYP1A2 (Homo sapiens, UniProt P05177); experiment: Vivid CYP screening kit, recombinant CYP1A2; format: biochemical; details: recombinant enzyme
T1 construct: purchased Thermo Fisher Scientific; host or cells: insect microsomal fractions
Description: (§1) CYP inhibitory assay was performed as described previously. Experiments were performed with commercial Vivid CYP screening kits containing insect microsomal fractions enriched with a specific human CYP isoform, human CYP reductase, and in some cases, human cytochrome b5. The potential inhibitory activity of ensartinib toward CYP1A2, CYP2B6, CYP2C8, CYP2C9, CYP2C19, CYP2D6, CYP3A4, and CYP3A5 (i.e., all CYP isoforms that drug regulatory authorities recommend for testing of inhibition by new molecular entities) was then examined. Experiments were performed using a kinetic mode in black 96-well plates according to the manufacturer´s instructions. Briefly, 5-point serial dilutions of ensartinib or the model inhibitor recommended by the manufacturer in buffer were transferred into the wells, then a master mix consisting of a CYP isoenzyme with an NADPH regeneration system in buffer was added. After a 10 min pre-incubation, the reaction was initiated by adding a mixture of NADP^+ and the appropriate Vivid substrate, after which fluorescence was measured at 1 min intervals for 60 min using an Infinite M200 Pro microplate reader (Tecan, Männedorf, Switzerland). The enzyme concentration and incubation interval used for data evaluation (15 min) placed the systems within the linear regions of the appropriate reaction velocity curves. […]

[1] = MTT proliferation assay, A431-ABCB1; format: cell-based; details: human, A431-ABCB1 cells, read-out: IC50, sensitivity to ensartinib
Description: (§2) MTT proliferation assay was performed as described previously.

CYP2C9 = molecular target: T2, CYP2C9 (Homo sapiens, UniProt P11712); experiment: Vivid CYP screening kit, recombinant CYP2C9; format: biochemical; details: recombinant enzyme, 15 min incubation, absolute IC50; read-out: CYP2C9 inhibition IC50
T2 construct: purchased Thermo Fisher Scientific; host or cells: insect microsomal fractions
Description: as §1

ABCB1 [2] = molecular target: T3, ABCB1 (Homo sapiens, UniProt P08183); experiment: hoechst 33342 accumulation assay in MDCKII-ABCB1 cells; format: cell-based; details: read-out: IC50, inhibition of ABCB1 (hoechst 33342 accumulation)
T3 construct: expressed in transfected cells; host or cells: MDCKII-ABCB1 (from Dr. Alfred Schinkel, The Netherlands Cancer Institute)
Description: Cellular accumulation assay with hoechst 33342 and calcein AM was performed as described previously. Briefly, MDCKII-par, MDCKII-ABCB1, MDCKII-ABCG2, and MDCKII-ABCC1 cells were seeded at densities of 5.0 × 10^4, 5.0 × 10^4, 5.5 × 10^4, and 6.0 × 10^4 cells/well, respectively, on a transparent 96-well plate and grown to full confluence for 24 h under standard conditions. The cells were then washed twice with 1 × PBS, after which was added either a dilution of ensartinib in Opti-MEM (1, 5, 10, 25, or 50 µM) or a specific inhibitor to act as a positive control (1 µM LY335979, 1 µM Ko143, or 25 µM MK-571 for ABCB1, ABCG2, or ABCC1, respectively). Cells were pre-incubated for 10 min, then 8 µM hoechst 33342 (a model substrate for ABCB1 and ABCG2) or 2 µM calcein AM (ABCC1 substrate) diluted in Opti-MEM was quickly added to all wells other than those containing blank samples. The intracellular levels of the substrates were then determined at 1 min intervals for 30 min using a microplate reader (Infinite M200 Pro, Tecan, Männedorf, Switzerland). Fluorescence was monitored in bottom mode using excitation/emission wavelengths of 350/465 and 485/535 nm for hoechst 33342 and calcein AM, respectively.

A431-ABCC1 cells = experiment: MTT proliferation assay, A431-ABCC1; format: cell-based; details: Homo sapiens, 48 h, read-out: IC50, sensitivity to ensartinib
Description: as §2

ABCB1 [3] = molecular target: T3, ABCB1; experiment: daunorubicin accumulation assay (flow cytometry) in MDCKII-ABCB1 cells; format: cell-based; details: 2 µM daunorubicin, 1 h, read-out: IC50, inhibition of ABCB1 (daunorubicin accumulation)
Description: The flow-cytometric inhibitory assay with daunorubicin and mitoxantrone was performed with minor modifications as described previously. MDCKII-par, MDCKII-ABCB1, MDCKII-ABCG2, and MDCKII-ABCC1 cell lines were seeded at densities of 22.0 × 10^4, 15.0 × 10^4, 25.0 × 10^4, and 22.0 × 10^4 cells/well, respectively, on a 12-well plate and then incubated for 24 h to reach approximately 70–80% confluence. Further steps including cell washing, the preparation of drug/model inhibitor dilutions, and their addition to cells were performed as described above. After the 10 min pre-incubation period, 2 µM daunorubicin (a substrate of ABCB1/ABCC1) or 1 µM mitoxantrone (ABCG2 substrate) were promptly added to all wells other than those containing background samples, then the plate was incubated for 1 h under standard conditions. The plates were subsequently placed on ice, the cells were washed twice with ice-cold 1× PBS, and 10× trypsin without phenol red was added. After complete trypsinization, the cells were vigorously resuspended in ice-cold 1× PBS containing 2% FBS. Samples were then transferred into test-tubes and kept on ice until their fluorescence could be measured using a flow cytometer (BD FACSCanto II, Allschwil, Switzerland). The excitation/emission wavelengths for daunorubicin and mitoxantrone were 490/565 and 640/670 nm, respectively.

T3 sequence (P08183 whole entry): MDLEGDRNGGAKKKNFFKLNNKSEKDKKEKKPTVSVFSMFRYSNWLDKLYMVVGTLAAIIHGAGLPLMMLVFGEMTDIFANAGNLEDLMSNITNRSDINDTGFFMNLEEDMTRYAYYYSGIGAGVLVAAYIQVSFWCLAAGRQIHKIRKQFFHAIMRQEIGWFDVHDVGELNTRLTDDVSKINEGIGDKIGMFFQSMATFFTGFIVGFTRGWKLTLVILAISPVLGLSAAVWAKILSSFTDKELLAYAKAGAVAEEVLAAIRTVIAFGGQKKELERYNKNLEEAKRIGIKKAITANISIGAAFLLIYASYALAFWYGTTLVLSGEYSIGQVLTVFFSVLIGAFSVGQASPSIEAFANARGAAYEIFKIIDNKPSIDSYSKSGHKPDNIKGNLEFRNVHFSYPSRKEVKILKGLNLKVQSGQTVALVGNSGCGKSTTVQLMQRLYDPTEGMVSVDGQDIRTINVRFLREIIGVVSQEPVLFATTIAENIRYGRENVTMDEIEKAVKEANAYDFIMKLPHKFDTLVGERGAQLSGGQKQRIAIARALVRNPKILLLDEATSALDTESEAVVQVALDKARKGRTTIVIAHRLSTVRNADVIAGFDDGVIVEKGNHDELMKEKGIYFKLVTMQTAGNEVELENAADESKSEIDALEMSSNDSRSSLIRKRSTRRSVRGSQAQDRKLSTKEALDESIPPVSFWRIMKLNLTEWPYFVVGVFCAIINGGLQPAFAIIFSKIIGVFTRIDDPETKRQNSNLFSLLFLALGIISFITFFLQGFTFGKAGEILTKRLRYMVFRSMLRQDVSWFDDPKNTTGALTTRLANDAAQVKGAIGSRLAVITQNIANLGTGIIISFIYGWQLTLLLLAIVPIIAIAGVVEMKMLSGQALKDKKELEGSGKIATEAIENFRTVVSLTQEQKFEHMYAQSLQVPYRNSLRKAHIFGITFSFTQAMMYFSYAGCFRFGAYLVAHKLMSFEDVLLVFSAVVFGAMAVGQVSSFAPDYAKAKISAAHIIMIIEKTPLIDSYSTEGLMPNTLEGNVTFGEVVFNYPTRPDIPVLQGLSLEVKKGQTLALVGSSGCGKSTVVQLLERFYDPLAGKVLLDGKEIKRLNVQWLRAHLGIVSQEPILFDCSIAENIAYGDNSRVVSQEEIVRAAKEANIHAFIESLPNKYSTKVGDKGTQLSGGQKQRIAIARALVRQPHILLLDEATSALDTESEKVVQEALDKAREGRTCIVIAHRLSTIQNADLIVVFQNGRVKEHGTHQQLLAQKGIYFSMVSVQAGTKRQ
T1 sequence (P05177 2-516 limits assumed): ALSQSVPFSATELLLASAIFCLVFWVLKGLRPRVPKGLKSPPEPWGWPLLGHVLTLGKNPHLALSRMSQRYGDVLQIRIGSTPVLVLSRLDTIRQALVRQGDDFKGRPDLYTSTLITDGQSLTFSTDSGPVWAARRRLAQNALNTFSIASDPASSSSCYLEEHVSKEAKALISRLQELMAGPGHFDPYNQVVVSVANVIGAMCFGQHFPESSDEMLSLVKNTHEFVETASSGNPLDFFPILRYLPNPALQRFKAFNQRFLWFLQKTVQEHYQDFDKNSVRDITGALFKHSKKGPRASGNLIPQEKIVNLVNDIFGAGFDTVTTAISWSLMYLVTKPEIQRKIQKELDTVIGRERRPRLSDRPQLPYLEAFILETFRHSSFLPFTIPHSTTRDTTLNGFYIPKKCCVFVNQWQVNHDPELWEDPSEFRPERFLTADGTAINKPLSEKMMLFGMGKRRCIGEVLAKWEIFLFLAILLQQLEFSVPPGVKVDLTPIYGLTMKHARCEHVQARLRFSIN
T2 sequence (P11712 whole entry): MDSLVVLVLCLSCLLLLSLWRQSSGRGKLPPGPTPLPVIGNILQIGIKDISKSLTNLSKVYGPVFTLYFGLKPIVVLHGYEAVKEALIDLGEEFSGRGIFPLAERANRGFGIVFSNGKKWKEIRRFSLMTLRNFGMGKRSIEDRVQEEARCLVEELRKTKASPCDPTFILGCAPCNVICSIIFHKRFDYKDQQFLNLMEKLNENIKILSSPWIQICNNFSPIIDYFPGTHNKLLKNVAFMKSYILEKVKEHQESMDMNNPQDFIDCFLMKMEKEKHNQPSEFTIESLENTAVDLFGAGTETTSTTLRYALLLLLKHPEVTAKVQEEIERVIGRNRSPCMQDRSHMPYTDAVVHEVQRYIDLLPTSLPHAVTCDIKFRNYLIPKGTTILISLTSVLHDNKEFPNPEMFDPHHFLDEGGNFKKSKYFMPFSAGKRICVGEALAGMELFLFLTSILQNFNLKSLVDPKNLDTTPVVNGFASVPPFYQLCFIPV

pIC50 (HL60-ABCC1 cells): 4.56 | inhibitory effect on CYP1A2 (in words) (CYP1A2): no appreciable inhibitory effect | pIC50 (CYP1A2; 15 min incubation, absolute IC50, read-out: CYP1A2 inhibition IC50): < 4.30 | pIC50 (CYP2C9): 5.31 | pIC50 (ABCB1 [2]): 5.43 | pIC50 (A431-ABCC1 cells): 5.73 | pIC50 (ABCB1 [3]): 5.32
Structure (SMILES): C[C@@H]1CN(C(=O)c2ccc(NC(=O)c3cc(O[C@H](C)c4c(Cl)ccc(F)c4Cl)c(N)nn3)cc2)C[C@H](C)N1 [ensartinib, Ensartinib]
IC50 at 48 h [1]: 2.79 µM
